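Exposure lasted 48 hours, with cells grown in 96-well plates and compounds tested at five concentrations. The concentration for 50% growth inhibition is given as GI50.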 Active and inactive are the calls of the source. No stated cut-off is given here; in the data, active = GI50 up to about 1.1 µM and inactive = higher.
What was measured:
Assay in all cases: NCI tumour cell line growth inhibition, 48 h
HCC 2998 = test system: HCC 2998
SR = test system: SR
SF-539 = test system: SF-539
HCT-116 = test system: HCT-116
SNB-75 = test system: SNB-75
SW-620 = test system: SW-620
M19-MEL = test system: M19-MEL
SK-MEL-5 = test system: SK-MEL-5
COLO 205 = test system: COLO 205
NCI-H23 = test system: NCI-H23
SNB-78 = test system: SNB-78
U-251 = test system: U-251
A498 = test system: A498
SK-OV-3 = test system: SK-OV-3
MOLT-4 = test system: MOLT-4
786-0 = test system: 786-0
XF498 = test system: XF498
NCI-H522 = test system: NCI-H522
SK-MEL-28 = test system: SK-MEL-28
LOX IMVI = test system: LOX IMVI
SNB-19 = test system: SNB-19
TK-10 = test system: TK-10
Malme-3M = test system: Malme-3M
HCT-15 = test system: HCT-15
UO-31 = test system: UO-31
NCI-H226 = test system: NCI-H226
HT-29 = test system: HT-29
ACHN = test system: ACHN
OVCAR-5 = test system: OVCAR-5
IGROV-1 = test system: IGROV-1
SF-268 = test system: SF-268
OVCAR-8 = test system: OVCAR-8
HL-60 = test system: HL-60
DLD-1 = test system: DLD-1
CAKI-1 = test system: CAKI-1
UACC-62 = test system: UACC-62
NCI-H460 = test system: NCI-H460
KM-20L2 = test system: KM-20L2
SK-MEL-2 = test system: SK-MEL-2
DMS-273 = test system: DMS-273
RXF 393 = test system: RXF 393
KM12 = test system: KM12
SF-295 = test system: SF-295
CCRF-CEM = test system: CCRF-CEM
EKVX = test system: EKVX
UACC-257 = test system: UACC-257
A549 = test system: A549
HOP-92 = test system: HOP-92
SN12C = test system: SN12C
OVCAR-3 = test system: OVCAR-3
HOP-62 = test system: HOP-62
HOP-18 = test system: HOP-18
RPMI-8226 = test system: RPMI-8226
OVCAR-4 = test system: OVCAR-4
LXFL 529 = test system: LXFL 529
M14 = test system: M14
DMS-114 = test system: DMS-114
K562 = test system: K562

For `COc1cc2cc3c4c(cc(OC)c(OC)c4c2cc1OC)CCN3C(=O)OCCBr`, the GI50 (HCC 2998) was 42.3 µM (inactive), the GI50 (SR) was 18.7 µM (inactive) and the GI50 (SF-539) was 22.4 µM (inactive). The GI50 (HCT-116) was 50.9 µM (inactive), the GI50 (SNB-75) was 46 µM (inactive) and the GI50 (SW-620) was 60.8 µM (inactive). For the same molecule, the GI50 (M19-MEL) was 81.8 µM (inactive), the GI50 (SK-MEL-5) was 53.1 µM (inactive) and the GI50 (COLO 205) was 78 µM (inactive). For the same molecule, the GI50 (NCI-H23) was 81.7 µM (inactive), the GI50 (SNB-78) was > 100 µM (inactive) and the GI50 (U-251) was > 100 µM (inactive). For the same molecule, the GI50 (A498) was 19.8 µM (inactive), the GI50 (SK-OV-3) was > 100 µM (inactive) and the GI50 (MOLT-4) was 27.8 µM (inactive). For the same molecule, the GI50 (786-0) was 55.8 µM (inactive), the GI50 (XF498) was > 100 µM (inactive) and the GI50 (NCI-H522) was 37.6 µM (inactive). For the same molecule, the GI50 (SK-MEL-28) was > 100 µM (inactive), the GI50 (LOX IMVI) was 32.7 µM (inactive) and the GI50 (SNB-19) was > 100 µM (inactive). For the same molecule, the GI50 (TK-10) was > 100 µM (inactive), the GI50 (Malme-3M) was > 100 µM (inactive) and the GI50 (HCT-15) was 60 µM. For the same molecule, the GI50 (UO-31) was > 100 µM (inactive), the GI50 (NCI-H226) was 0.259 µM (active) and the GI50 (HT-29) was 50.1 µM (inactive). For the same molecule, the GI50 (ACHN) was 50.9 µM (inactive), the GI50 (OVCAR-5) was > 100 µM (inactive) and the GI50 (IGROV-1) was > 100 µM (inactive). The GI50 (SF-268) was > 100 µM (inactive), the GI50 (OVCAR-8) was > 100 µM (inactive) and the GI50 (HL-60) was 39.1 µM (inactive). For the same molecule, the GI50 (DLD-1) was 45.5 µM (inactive), the GI50 (CAKI-1) was 41.9 µM (inactive) and the GI50 (UACC-62) was 60.4 µM (inactive). For the same molecule, the GI50 (NCI-H460) was 33.2 µM (inactive), the GI50 (KM-20L2) was 43.4 µM (inactive) and the GI50 (SK-MEL-2) was > 100 µM (inactive). For the same molecule, the GI50 (DMS-273) was 50.2 µM (inactive), the GI50 (RXF 393) was 42.5 µM (inactive) and the GI50 (KM12) was 60.7 µM (inactive). The GI50 (SF-295) was > 100 µM (inactive), the GI50 (CCRF-CEM) was 20.6 µM (inactive) and the GI50 (EKVX) was 10.1 µM (inactive). The GI50 (UACC-257) was > 100 µM (inactive), the GI50 (A549) was 28 µM (inactive) and the GI50 (HOP-92) was 39.1 µM (inactive). The GI50 (SN12C) was 45 µM (inactive) and the GI50 (OVCAR-3) was > 100 µM (inactive).

For `CC1(C)COC(C23C4C5C2C2C3C4C52I)=N1` (centres undefined), the GI50 (HOP-62) was > 100 µM (inactive), the GI50 (HCC 2998) was > 100 µM (inactive) and the GI50 (SF-539) was > 100 µM (inactive). The GI50 (SW-620) was > 100 µM (inactive), the GI50 (HOP-18) was > 100 µM (inactive) and the GI50 (RPMI-8226) was > 100 µM (inactive). For the same molecule, the GI50 (M19-MEL) was > 100 µM (inactive), the GI50 (SK-MEL-5) was > 100 µM (inactive) and the GI50 (COLO 205) was > 100 µM (inactive). The GI50 (NCI-H23) was > 100 µM (inactive), the GI50 (SNB-78) was > 100 µM (inactive) and the GI50 (U-251) was > 100 µM (inactive). For the same molecule, the GI50 (A498) was > 100 µM (inactive), the GI50 (SK-OV-3) was > 100 µM (inactive) and the GI50 (MOLT-4) was > 100 µM (inactive). The GI50 (786-0) was > 100 µM (inactive), the GI50 (XF498) was > 100 µM (inactive) and the GI50 (SK-MEL-28) was > 100 µM (inactive). For the same molecule, the GI50 (SNB-19) was > 100 µM (inactive), the GI50 (TK-10) was > 100 µM (inactive) and the GI50 (Malme-3M) was > 100 µM (inactive). The GI50 (OVCAR-4) was > 100 µM (inactive), the GI50 (HCT-15) was > 100 µM and the GI50 (UO-31) was > 100 µM (inactive). For the same molecule, the GI50 (NCI-H226) was > 100 µM (inactive), the GI50 (LXFL 529) was > 100 µM (inactive) and the GI50 (HT-29) was > 100 µM (inactive). The GI50 (M14) was > 100 µM (inactive), the GI50 (DMS-114) was > 100 µM (inactive) and the GI50 (ACHN) was > 100 µM (inactive). For the same molecule, the GI50 (OVCAR-5) was > 100 µM (inactive), the GI50 (IGROV-1) was > 100 µM (inactive) and the GI50 (SF-268) was > 100 µM (inactive). The GI50 (OVCAR-8) was > 100 µM (inactive), the GI50 (DLD-1) was > 100 µM (inactive) and the GI50 (CAKI-1) was 50.4 µM (inactive). The GI50 (UACC-62) was > 100 µM (inactive), the GI50 (NCI-H460) was > 100 µM (inactive) and the GI50 (K562) was > 100 µM (inactive). For the same molecule, the GI50 (KM-20L2) was > 100 µM (inactive), the GI50 (RXF 393) was > 100 µM (inactive) and the GI50 (SF-295) was > 100 µM (inactive). The GI50 (CCRF-CEM) was > 100 µM (inactive), the GI50 (EKVX) was > 100 µM (inactive) and the GI50 (UACC-257) was > 100 µM (inactive). For the same molecule, the GI50 (A549) was > 100 µM (inactive), the GI50 (HOP-92) was > 100 µM (inactive) and the GI50 (SN12C) was > 100 µM (inactive). For the same molecule, the GI50 (OVCAR-3) was > 100 µM (inactive).

Source: ChEMBL document CHEMBL1201862, “PubChem BioAssay data set” (2004)
